Source: patent publication US11590116B2 (THERAVANCE BIOPHARMA R&D IP, LLC, priority 2019, dated 2023)

Tests used:
[1] = system: TGF-β-stimulated SMAD3 phosphorylation in BEAS-2B cells; experiment: Cellular ALK5 potency assay, inhibition of TGF-β stimulated pSMAD3 formation in BEAS-2B cells; type: cell-based; conditions: Homo sapiens; inhibition of TGF-β stimulated pSMAD3 formation, BEAS-2B cells; read-out: BEAS2B pIC50 (converted)
Summary of the method: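 pSMAD3 was quantified by AlphaLISA in BEAS-2B lysates after 10 ng/mL TGF-β (final) for 30 min. Before stimulation, cells received compound for 1 h at 37° C in supplemented HBSS. Values are pIC50, relative to TGF-β-stimulated cells without compound.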

[2] = target: T1, recombinant human ALK5 (TGF-βR1) protein (Homo sapiens, UniProt P36897); experiment: Biochemical ALK5 (TGF-βR1) assay to measure pKi (LANCE Ultra ULight kinase assay); conditions: apparent pKi from pIC50 by Cheng-Prusoff, read-out: ALK5 pKi (converted)
T1 construct: purchased Life Technologies PR9075A
T1 sequence (P36897 34-503): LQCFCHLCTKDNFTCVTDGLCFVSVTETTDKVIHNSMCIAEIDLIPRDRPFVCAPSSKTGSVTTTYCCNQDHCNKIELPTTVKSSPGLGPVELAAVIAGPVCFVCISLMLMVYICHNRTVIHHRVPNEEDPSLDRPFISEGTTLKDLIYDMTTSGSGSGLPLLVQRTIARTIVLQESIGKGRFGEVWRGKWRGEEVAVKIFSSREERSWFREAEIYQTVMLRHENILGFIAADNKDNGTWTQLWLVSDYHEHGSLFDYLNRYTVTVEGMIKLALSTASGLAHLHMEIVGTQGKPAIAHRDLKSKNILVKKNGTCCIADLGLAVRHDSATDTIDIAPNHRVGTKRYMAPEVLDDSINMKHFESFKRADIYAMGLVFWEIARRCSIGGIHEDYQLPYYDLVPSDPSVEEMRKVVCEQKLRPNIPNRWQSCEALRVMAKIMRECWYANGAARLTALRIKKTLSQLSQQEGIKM
Summary of the method: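 Dose range 10 μM–25 pM; enzyme + compound 60 min RT; ATP added (5× stock 125 μM, 2 mM DTT); 60 min 37 °C; stop with EDTA + Eu anti-phospho-Topo IIα Thr1342 Ab; TR-FRET ex 320/340, em 665 nm. 4-param pIC50 → pKi (Cheng-Prusoff).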

Row | Ki [2] [nM] | SMILES | IC50 [1] [nM]
1 | < 0.0316 | Cc1nc(-c2n[nH]cc2-c2ccc3ncc(N4CCN(C(C)C)CC4)cc3n2)ccc1F [Compound 687, 2-[3-(5-fluoro-6-methyl-2-pyridyl)-1H-pyrazol-4-yl]-7-(4-isopropylpiperazin-1-yl)-1,5-naphthyridine] | 25.1 to 158
2 | 0.398 to 3.16 | Cc1cccc(-c2n[nH]cc2-c2ccc3nccc(N4CC(N5CCOCC5)C4)c3n2)n1 [Compound 846, 4-[1-[6-[3-(6-methyl-2-pyridyl)-1H-pyrazol-4-yl]-1,5-naphthyridin-4-yl]azetidin-3-yl]morpholine] | 200 to 1260
3 | 0.0398 to 0.316 | Cc1cccc(-c2[nH]ncc2-c2ccc3ncc(C(=O)OCCN4CCC[C@@H](N)C4)cc3c2)n1 [Compound 1241, 2-[(3R)-3-amino-1-piperidyl]ethyl 6-[5-(6-methyl-2-pyridyl)-1H-pyrazol-4-yl]quinoline-3-carboxylate] | 25.1 to 158
4 | 0.0398 to 0.316 | Cc1cccc(-c2[nH]cnc2-c2ccc3ncc(N4CCC(NC(=O)C5CCNCC5)CC4)cc3c2)n1 [Compound 583, N-[1-[6-[5-(6-methyl-2-pyridyl)-1H-imidazol-4-yl]-3-quinolyl]-4-piperidyl]piperidine-4-carboxamide] | 1580 to 10000
5 | 0.0398 to 0.316 | Cc1cccc(-c2[nH]cnc2-c2ccc3ncc(C(=O)O[C@H]4CC[C@](C)(N)CC4)cc3c2)n1 [Compound 771, (4-amino-4-methyl-cyclohexyl) 6-[5-(6-methyl-2-pyridyl)-1H-imidazol-4-yl]quinoline-3-carboxylate] | 25.1 to 158
6 | 0.0398 to 0.316 | Cc1cccc(-c2nc3ccccn3c2-c2ccc3ncc(NCCN4CCN(C(C)C)CC4)cc3c2)n1 [Compound 293, N-(2-(4-isopropylpiperazin-1-yl)ethyl)-6-(2-(6-methylpyridin-2-yl)imidazo[1,2-a]pyridin-3-yl)quinolin-3-amine] | 25.1 to 158
7 | 0.0398 to 0.316 | Cc1cccc(-c2n[nH]cc2-c2ccc3ncc(-c4cn5c(n4)CN(C4CCNC4)CC5)cc3n2)n1 (stereo not shown) [Compound 440, 2-[3-(6-methyl-2-pyridyl)-1H-pyrazol-4-yl]-7-(7-pyrrolidin-3-yl-6,8-dihydro-5H-imidazo[1,2-a]pyrazin-2-yl)-1,5-naphthyridine] | 200 to 1260
8 | 0.0398 to 0.316 | Cc1cccc(-c2[nH]cnc2-c2ccc3ncc(N(C)CC4CNC4)cc3c2)n1 [Compound 6, N-(azetidin-3-ylmethyl)-N-methyl-6-[5-(6-methyl-2-pyridyl)-1H-imidazol-4-yl]quinolin-3-amine] | 25.1 to 158
9 | 0.0398 to 0.316 | Cc1cccc(-c2n[nH]cc2-c2ccc3ncc(N4CCC[C@H]4CO)cc3n2)n1 [Compound 52, [(2S)-1-[6-[3-(6-methyl-2-pyridyl)-1H-pyrazol-4-yl]-1,5-naphthyridin-3-yl]pyrrolidin-2-yl]methanol] | 25.1 to 158
10 | 0.398 to 3.16 | Cc1cccc(-c2[nH]nnc2-c2ccc3ncc(N4CCCNCC4)cc3c2)n1 [Compound 339, 3-(1,4-diazepan-1-yl)-6-[5-(6-methyl-2-pyridyl)-1H-triazol-4-yl]quinoline] | 200 to 1260
11 | 0.0398 to 0.316 | Cc1cccc(-c2[nH]cnc2-c2ccc3ncc(-c4ccc5c(c4)CC(N)C5)cc3c2)n1 (stereo not shown) [Compound 163, 5-[6-[5-(6-methyl-2-pyridyl)-1H-imidazol-4-yl]-3-quinolyl]indan-2-amine] | < 20
12 | 0.0398 to 0.316 | Cc1nc(-c2n[nH]cc2-c2ccc3ncc(-c4nc5c([nH]4)CNCC5)cc3n2)ccc1F [Compound 425, 2-[3-(5-fluoro-6-methyl-2-pyridyl)-1H-pyrazol-4-yl]-7-(4,5,6,7-tetrahydro-3H-imidazo[4,5-c]pyridin-2-yl)-1,5-naphthyridine] | 200 to 1260
13 | 0.0398 to 0.316 | Cc1cccc(-c2[nH]cnc2-c2ccc3ncc(C(=O)OCCN4CCN5CCCC5C4)cc3c2)n1 (stereo not shown) [Compound 1067, 2-(3,4,6,7,8,8a-hexahydro-1H-pyrrolo[1,2-a]pyrazin-2-yl)ethyl 6-[5-(6-methyl-2-pyridyl)-1H-imidazol-4-yl]quinoline-3-carboxylate] | 25.1 to 158

The next lines start with the molecule.

Row | SMILES | Ki [2] [nM] | IC50 [1] [nM]
14 | Cc1cccc(-c2[nH]cnc2-c2ccc3ncc(Br)cc3c2)n1 [Compound 1190, 3-bromo-6-[5-(6-methyl-2-pyridyl)-1H-imidazol-4-yl]quinoline] | 0.0398 to 0.316 | < 20
15 | Cc1cccc(-c2[nH]cnc2-c2ccc3ncc(C4=CCN(C(=O)C5CCCNC5)CC4)cc3c2)n1 (stereo not shown) [Compound 1150, [4-[6-[5-(6-methyl-2-pyridyl)-1H-imidazol-4-yl]-3-quinolyl]-3,6-dihydro-2H-pyridin-1-yl]-(3-piperidyl)methanone] | 0.0398 to 0.316 | 25.1 to 158
16 | Cc1cccc(-c2[nH]cnc2-c2ccc3ncc(C4=CC(C)(C)NC(C)(C)C4)cc3c2)n1 [Compound 117, 6-[5-(6-methyl-2-pyridyl)-1H-imidazol-4-yl]-3-(2,2,6,6-tetramethyl-1,3-dihydropyridin-4-yl)quinoline] | 0.398 to 3.16 | 25.1 to 158
17 | Cc1cccc(-c2[nH]ncc2-c2ccc3nccc(C(=O)OC[C@@H]4CCCCN4)c3c2)n1 [Compound 1085, [(2S)-2-piperidyl]methyl 6-[5-(6-methyl-2-pyridyl)-1H-pyrazol-4-yl]quinoline-4-carboxylate] | 0.398 to 3.16 | 25.1 to 158
18 | Cc1cccc(-c2[nH]cnc2-c2ccc3ncc(-c4nc(C5=CCNCC5)cs4)cc3c2)n1 [Compound 1051, 2-(6-(5-(6-methylpyridin-2-yl)-1H-imidazol-4-yl)quinolin-3-yl)-4-(1,2,3,6-tetrahydropyridin-4-yl)thiazole] | 0.0398 to 0.316 | < 20
19 | Cc1cccc(-c2n[nH]cc2-c2ccc3nccc(N(C)CCN4CCOCC4)c3n2)n1 [Compound 831, N-methyl-6-[3-(6-methyl-2-pyridyl)-1H-pyrazol-4-yl]-N-(2-morpholinoethyl)-1,5-naphthyridin-4-amine] | 0.0398 to 0.316 | 200 to 1260
20 | Cc1cccc(-c2[nH]cnc2-c2ccc3ncc(C(=O)OCCCC4CNC4)cc3c2)n1 [Compound 1090, 3-(azetidin-3-yl)propyl 6-[5-(6-methyl-2-pyridyl)-1H-imidazol-4-yl]quinoline-3-carboxylate] | 0.0398 to 0.316 | 200 to 1260
21 | Cc1cccc(-c2n[nH]cc2-c2ccc3ncc(-c4cn(Cc5ccccc5)nn4)cc3n2)n1 [Compound 48, 7-(l-benzyltriazol-4-yl)-2-[3-(6-methyl-2-pyridyl)-1H-pyrazol-4-yl]-1,5-naphthyridine] | 0.0398 to 0.316 | < 20
22 | Cc1cccc(-c2[nH]cnc2-c2ccc3ncc(-c4nccc(C(=O)O[C@@H]5CCNC5)n4)cc3c2)n1 [Compound 1093, [(3R)-pyrrolidin-3-yl] 2-[6-[5-(6-methyl-2-pyridyl)-1H-imidazol-4-yl]-3-quinolyl]pyrimidine-4-carboxylate] | 0.398 to 3.16 | 200 to 1260
23 | Cc1cccc(-c2n[nH]cc2-c2ccc3ncc(N4CCCN(C5CCCC5)CC4)cc3n2)n1 [Compound 400, 7-(4-cyclopentyl-1,4-diazepan-1-yl)-2-[3-(6-methyl-2-pyridyl)-1H-pyrazol-4-yl]-1,5-naphthyridine] | 0.0398 to 0.316 | 200 to 1260
24 | Cc1nc(-c2n[nH]cc2-c2ccc3ncc(-c4cnn(C[C@H]5CCC[C@H](N)C5)c4)cc3n2)ccc1F (racemic) [Compound 395, rac-(1S,3S)-3-[[4-[6-[3-(5-fluoro-6-methyl-2-pyridyl)-1H-pyrazol-4-yl]-1,5-naphthyridin-3-yl]pyrazol-1-yl]methyl]cyclohexanamine] | < 0.0316 | 25.1 to 158
25 | Cc1cccc(-c2[nH]cnc2-c2ccc3ncc(-c4ccc(C(=O)OC5CCNCC5)nc4)cc3c2)n1 [Compound 110, piperidin-4-yl 5-(6-(5-(6-methylpyridin-2-yl)-1H-imidazol-4-yl)quinolin-3-yl)picolinate] | 0.0398 to 0.316 | 25.1 to 158
26 | Cc1cccc(-c2[nH]cnc2-c2ccc3ncc(-c4csc(C(=O)OC5CNC5)c4)cc3c2)n1 [Compound 752, azetidin-3-yl 4-[6-[5-(6-methyl-2-pyridyl)-1H-imidazol-4-yl]-3-quinolyl]thiophene-2-carboxylate] | 0.0398 to 0.316 | 25.1 to 158
27 | Cc1cccc(-c2n[nH]cc2-c2ccc3ncc(-c4ncco4)cc3n2)n1 [Compound 72, 2-[6-[3-(6-methyl-2-pyridyl)-1H-pyrazol-4-yl]-1,5-naphthyridin-3-yl]oxazole] | 0.0398 to 0.316 | 25.1 to 158
28 | Cc1cccc(-c2n[nH]cc2-c2ccc3ncc(N4CCNCC4)cc3c2)n1 [Compound 529, 6-[3-(6-methyl-2-pyridyl)-1H-pyrazol-4-yl]-3-piperazin-1-yl-quinoline] | < 0.0316 | < 20
29 | CC(=O)Oc1ccnc2ccc(-c3c[nH]nc3-c3cccc(C)n3)nc12 [Compound 857, [6-[3-(6-methyl-2-pyridyl)-1H-pyrazol-4-yl]-1,5-naphthyridin-4-yl]acetate] | 0.398 to 3.16 | 25.1 to 158
